According to PubChem BioAssay (NCI):
Values joined by “and” are separate entries in the source; they are usually repeats but may differ in a detail not shown here. Equal entries are not always repeated.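 Grown in 96-well plates, cells were treated for 48 hours with each compound at five concentrations. Insufficient inhibition: endpoint recorded as highest concentration tested. Here, GI50 denotes the concentration required for 50% inhibition of growth. TGI denotes the concentration required for complete inhibition of growth.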

Tests used:
Experiment in all cases: NCI-60 cell line screen, 48 h
[1] = tested on: HCT-116 colon
[2] = tested on: PC-3 prostate
[3] = tested on: NCI-H226 lung
[4] = tested on: KM12 colon
[5] = tested on: NCI-H23 lung
[6] = tested on: SK-OV-3 ovarian
[7] = tested on: RPMI-8226 leukemia
[8] = tested on: OVCAR-8 ovarian
[9] = tested on: TK-10 renal
[10] = tested on: SK-MEL-28 melanoma
[11] = tested on: M14 melanoma
[12] = tested on: HS 578T breast
[13] = tested on: SF-295 CNS
[14] = tested on: SF-539 CNS
[15] = tested on: LOX IMVI melanoma
[16] = tested on: SNB-19 CNS
[17] = tested on: NCI-H522 lung
[18] = tested on: SNB-75 CNS
[19] = tested on: MDA-N
[20] = tested on: NCI-H460 lung
[21] = tested on: HCT-15 colon
[22] = tested on: CCRF-CEM leukemia
[23] = tested on: EKVX NSCLC
[24] = tested on: RXF 393 renal
[25] = tested on: SF-268 CNS
[26] = tested on: COLO 205 colon
[27] = tested on: DU-145 prostate
[28] = tested on: SN12C renal
[29] = tested on: 786-0 renal
[30] = tested on: MDA-MB-435
[31] = tested on: SK-MEL-5 melanoma
[32] = tested on: CAKI-1 renal
[33] = tested on: OVCAR-3 ovarian
[34] = tested on: HOP-62 NSCLC
[35] = tested on: HT29 colon
[36] = tested on: UO-31 renal
[37] = tested on: BT-549 breast
[38] = tested on: U251 CNS
[39] = tested on: HL-60(TB) leukemia
[40] = tested on: MOLT-4 leukemia
[41] = tested on: HCC-2998 colon
[42] = tested on: T-47D breast
[43] = tested on: HOP-92 NSCLC
[44] = tested on: OVCAR-4 ovarian
[45] = tested on: MCF7 breast
[46] = tested on: NCI/ADR-RES ovarian
[47] = tested on: SW-620 colon
[48] = tested on: SK-MEL-2 melanoma
[49] = tested on: MALME-3M melanoma
[50] = tested on: ACHN renal
[51] = tested on: UACC-62 melanoma
[52] = tested on: UACC-257 melanoma
[53] = tested on: OVCAR-5 ovarian
[54] = tested on: K-562 leukemia
[55] = tested on: IGROV1 ovarian
[56] = tested on: A498 renal
[57] = tested on: A549 NSCLC
[58] = tested on: MDA-MB-231 breast
[59] = tested on: SR leukemia

Compound: O=[N+]([O-])c1ccc([I+]c2ccccc2)cc1
- GI50 [1]: 1.83 µM
- TGI [1]: 17.5 µM and 3.8 µM
- GI50 [2]: 2.16 µM
- TGI [2]: 11 µM and 5.21 µM
- GI50 [3]: 1.45 µM
- TGI [3]: 19.1 µM and 3.2 µM
- GI50 [4]: 1.67 µM
- TGI [4]: 9.64 µM and 3.15 µM
- GI50 [5]: 1.23 µM
- TGI [5]: 5.98 µM and 2.74 µM
- GI50 [6]: 1.73 µM
- TGI [6]: 3.6 µM and 3.24 µM
- GI50 [7]: 4.64 µM
- TGI [7]: 47.2 µM and 54.2 µM
- GI50 [8]: 2.78 µM
- TGI [8]: 12.2 µM and 10.3 µM
- GI50 [9]: 3.61 µM
- TGI [9]: 26.9 µM and 15.5 µM
- GI50 [10]: 1.92 µM
- TGI [10]: 10.1 µM and 4.57 µM
- GI50 [11]: 1.97 µM
- TGI [11]: 16.4 µM and 4.33 µM
- GI50 [12]: 2 µM
- TGI [12]: 13.5 µM and 5.85 µM
- GI50 [13]: 1.64 µM
- TGI [13]: 10.1 µM and 3.24 µM
- GI50 [14]: 1.77 µM
- TGI [14]: 14.3 µM and 3.47 µM
- GI50 [15]: 0.583 µM
- TGI [15]: 1.99 µM
- GI50 [16]: 1.63 µM
- TGI [16]: 9.99 µM and 3.03 µM
- GI50 [17]: 1.52 µM
- TGI [17]: 4.2 µM and 3.03 µM
- GI50 [18]: 1.66 µM
- TGI [18]: 3.28 µM
- TGI [19]: 20.9 µM
- GI50 [20]: 1.78 µM
- TGI [20]: 11.9 µM and 3.93 µM
- GI50 [21]: 8.9 µM
- TGI [21]: 18.3 µM and 23.4 µM
- GI50 [22]: 3.21 µM
- TGI [22]: > 100 µM and 10.9 µM
- GI50 [23]: 1.5 µM
- TGI [23]: 32 µM and 3.32 µM
- GI50 [24]: 1.87 µM
- TGI [24]: 10.8 µM and 3.76 µM
- GI50 [25]: 1.65 µM
- TGI [25]: 13.1 µM and 3.11 µM
- GI50 [26]: 1.37 µM
- TGI [26]: 13.5 µM and 3.82 µM
- GI50 [27]: 2.25 µM
- TGI [27]: 25 µM and 6.35 µM
- GI50 [28]: 1.4 µM
- TGI [28]: 3.26 µM and 2.89 µM
- GI50 [29]: 1.78 µM
- GI50 [30]: 1.85 µM
- TGI [30]: 23.3 µM and 4.33 µM
- GI50 [31]: 1.54 µM
- TGI [31]: 21.2 µM and 2.93 µM
- GI50 [32]: 0.289 µM
- TGI [32]: 15 µM and 1.58 µM
- GI50 [33]: 1.8 µM
- TGI [33]: 12.2 µM and 3.39 µM
- GI50 [34]: 1.56 µM
- TGI [34]: 25.6 µM and 3.3 µM
- GI50 [35]: 2.08 µM
- TGI [35]: 8.33 µM and 5.08 µM
- TGI [36]: 11.9 µM
- GI50 [37]: 1.63 µM
- TGI [37]: 8.12 µM and 3.09 µM
- GI50 [38]: 1.71 µM
- TGI [38]: 10.9 µM and 3.43 µM
- GI50 [39]: 3.15 µM
- TGI [39]: 27.4 µM and 9.73 µM
- GI50 [40]: 3.17 µM
- TGI [40]: > 26.2 µM and 75.3 µM
- GI50 [41]: 3.22 µM
- TGI [41]: 16.4 µM and 11.3 µM
- GI50 [42]: 1.3 µM
- TGI [42]: 26 µM and 5.04 µM
- TGI [43]: 23.5 µM and 25.1 µM
- GI50 [44]: 1.67 µM
- TGI [44]: 11.9 µM and 3.69 µM
- GI50 [45]: 2.24 µM
- TGI [45]: 10.3 µM and 8.25 µM
- GI50 [46]: 2.25 µM
- TGI [46]: > 29.1 µM and 6.92 µM
- GI50 [47]: 1.85 µM
- TGI [47]: 12.2 µM and 4.31 µM
- GI50 [48]: 2.25 µM
- TGI [48]: 7.47 µM
- GI50 [49]: 1.31 µM
- TGI [49]: 11.2 µM and 3.54 µM
- GI50 [50]: 5.15 µM
- TGI [50]: > 31.6 µM and 18.5 µM
- GI50 [51]: 1.43 µM
- TGI [51]: 8.17 µM and 3.62 µM
- GI50 [52]: 1.6 µM
- TGI [52]: 13.9 µM and 4.42 µM
- GI50 [53]: 1.78 µM
- TGI [53]: 17 µM and 3.34 µM
- TGI [54]: > 53.2 µM
- TGI [55]: 35.3 µM
- TGI [56]: 6.49 µM and 5.48 µM
- GI50 [57]: 1.93 µM
- GI50 [58]: 2.1 µM
- TGI [58]: 12.9 µM and 4.9 µM
- TGI [59]: > 47.8 µM

Compound: CC(=O)N(CCc1ccccc1)C(C)(C#N)c1ccccc1 (configuration not stated)
- TGI [1]: > 100 µM
- TGI [2]: > 100 µM
- TGI [3]: > 100 µM
- TGI [4]: > 100 µM
- TGI [5]: > 100 µM
- TGI [6]: > 100 µM
- TGI [7]: > 100 µM
- TGI [8]: > 100 µM
- TGI [9]: > 100 µM
- TGI [10]: > 100 µM
- TGI [11]: > 100 µM
- TGI [12]: > 100 µM
- TGI [13]: > 100 µM
- TGI [14]: > 100 µM
- TGI [15]: > 100 µM
- TGI [16]: > 100 µM
- TGI [17]: > 100 µM
- TGI [18]: > 100 µM
- TGI [19]: > 100 µM
- TGI [21]: > 100 µM
- TGI [22]: > 100 µM
- TGI [23]: > 100 µM
- TGI [24]: > 100 µM
- TGI [25]: > 100 µM
- TGI [26]: > 100 µM
- TGI [27]: > 100 µM
- TGI [28]: > 100 µM
- TGI [29]: > 100 µM
- TGI [30]: > 100 µM
- TGI [31]: > 100 µM
- TGI [32]: > 100 µM
- TGI [33]: > 100 µM
- TGI [34]: > 100 µM
- TGI [35]: > 100 µM
- TGI [36]: > 100 µM
- TGI [37]: > 100 µM
- TGI [38]: > 100 µM
- TGI [39]: > 100 µM
- TGI [40]: > 100 µM
- TGI [41]: > 100 µM
- TGI [42]: > 100 µM
- TGI [43]: > 100 µM
- TGI [44]: > 100 µM
- TGI [45]: > 100 µM
- TGI [46]: > 100 µM
- TGI [47]: > 100 µM
- TGI [48]: > 100 µM
- TGI [49]: > 100 µM
- TGI [50]: > 100 µM
- TGI [51]: > 100 µM
- TGI [52]: > 100 µM
- TGI [53]: > 100 µM
- TGI [54]: > 100 µM
- TGI [55]: > 100 µM
- TGI [56]: > 100 µM
- TGI [57]: > 100 µM
- TGI [58]: > 100 µM
- TGI [59]: > 100 µM
